12 compounds from patent US9284286B2, “Specific carboxamides as KCNQ2/3 modulators” (GRÜNENTHAL GMBH, priority 2012, dated 2016) can be followed below.

SMILES strings stand for the structures.

In this assay the target is T1, KCNQ2/3 channels (Homo sapiens, UniProt O43525+O43526).
T1 construct: expressed in transfected cells; host or cells: CHO-K1
The assay can be described thus: Fluorescence assay using a voltage sensitive dye (fluorimetry). Format: cell-based. The following applies: CHO-K1 cells expressing KCNQ2/3 channels; for Emax: relative to retigabine = 100%, read-out: Fluorimetry % Efficacy (retigabine = 100%); for EC50: voltage-sensitive dye, KCl depolarisation, read-out: Fluorimetry EC50/IC50. As for the experimental part:
Pharmacological Experiments Fluorescence Assay Using a Voltage Sensitive Dye (Fluorimetry)
Human CHO-K1 cells expressing KCNQ2/3 channels are cultivated adherently at 37° C., 5% CC2 and 95% humidity in cell culture bottles (e.g. 80 cm^2 TC flasks, Nunc) with DMEM-high glucose (Sigma Aldrich, D7777) including 10% FCS (PAN Biotech, e.g. 3302-P270521) or alternatively MEM Alpha Medium (1×, liquid, Invitrogen, #22571), 10% fetal calf serum (FCS) (Invitrogen, #10270-106, heat-inactivated) and the necessary selection antibiotics.
Before being sown out for the measurements, the cells are washed with 1×DPBS buffer Ca^2+/Mg^2+-free (e.g. Invitrogen, #14190-094) and detached from the bottom of the culture vessel by using Accutase (PAA Laboratories, #L11-007) (incubation with Accutase for 15 min at 37° C.). The cell number is determined using a CASY™ cell counter (TCC, Schärfe System). Depending on the optimal density for each individual cell line, 20,000-30,000 cells/well/100 μl are seeded onto 96-well Corning™ CeIIBIND™ assay plates (Flat Clear Bottom Black Polystyrene Microplates, #3340). Freshly seeded cells are then left to settle for one hour at room temperature, followed by incubation for 24 hours at 37° C., 5% CO2 and 95% humidity.
The voltage-sensitive fluorescent dye from the Membrane Potential Assay Kit (Red™ Bulk format part R8123 for FLIPR, MDS Analytical Technologies™) is prepared by dissolving the contents of one vessel Membrane Potential Assay Kit Red Component A in 200 ml of extracellular buffer (ES buffer, 120 mM NaCl, 1 mM KCl, 10 mM HEPES, 2 mM CaCl2, 2 mM MgCl2, 10 mM glucose; pH 7.4). After removal of the nutrient medium, the cells are washed once with 200 μl of ES buffer, then loaded for 45 min at room temperature in 100 μl of dye solution in the dark.
Fluorescence measurements are carried out in a BMG Labtech FLUOstar™, BMG Labtech NOVOstar™ or BMG Labtech POLARstar™ instrument (525 nm excitation, 560 nm emission, Bottom Read mode). After incubation with the dye, 50 μl of the test substances in the desired concentrations, or 50 μl of ES buffer for control purposes, are applied to the wells of the assay plate and incubated for 30 min at room temperature while being shielded from light. The fluorescence intensity of the dye is then measured for 5 min and the fluorescence value F1 of each well is thus determined at a given, constant time. 15 μl of a KCl solution are then added to each well (final concentration of potassium ions 92 mM). The change in fluorescence intensity is subsequently monitored until all the relevant values have been obtained (mainly 5-30 min). At a given time post KCl application, a fluorescence value F2 is determined, in this case at the time of the fluorescence peak.
For calculation, the fluorescence intensity F2 is corrected for the fluorescence intensity F1, and the activity (ΔF/F) of the target compound on the potassium channel is determined as follows:
In order to determine whether a substance has agonistic activity,
[formula] can be related to
[formula] of control wells.
[formula] is determined by adding to the well only the buffer solution instead of the test substance, determining the value F1K of the fluorescence intensity, adding the potassium ions as described above, and measuring a value F2K of the fluorescence intensity. F2K and F1K are then calculated as follows: […]
A substance has an agonistic activity on the potassium channel if
[formula] is greater than
Independently of the comparison of
[formula] it is possible to conclude that a target compound has agonistic activity if
[formula] increases dose dependently.
Calculations of EC50 and IC50 values are carried out with the aid of ‘Prism v4.0’ software (GraphPad Software™).

On to `CC(C)CCNC(=O)c1cncnc1SCCC(F)(F)c1ccc(F)cc1` [Example 10, 4-[[3,3-Difluoro-3-(4-fluorophenyl)-propyl]sulfanyl]-N-(3-methyl-butyl)-pyrimidine-5-carboxylic acid amide], for which the Emax is 211% and the EC50 was 61 nM.
The corresponding values for `O=C(NCc1ccc(F)cc1)c1cnccc1SCCC(F)(F)c1ccc(F)cc1` [Example 6, 4-[[3,3-Difluoro-3-(4-fluorophenyl)-propyl]sulfanyl]-N-[(4-fluorophenyl)-methyl]-pyridine-3-carboxylic acid amide] are 121% and 563 nM.
In the case of `CC(C)CCNC(=O)c1cnccc1SCCC(F)(F)c1ccc(F)cc1` [Example 5, 4-[[3,3-Difluoro-3-(4-fluorophenyl)-propyl]sulfanyl]-N-(3-methyl-butyl)-pyridine-3-carboxylic acid amide], the Emax was 228% and the EC50 turned out to be 849 nM.
In the same order, the values of `CC(C)(C)CCNC(=O)c1ccccc1SCCCc1ccc(F)cc1` [Example 2, N-(3,3-Dimethyl-butyl)-2-[3-(4-fluorophenyl)-propylsulfanyl]-benzamide] are 186% and 501 nM.
The corresponding values for `O=C(NCc1ccc(F)cc1)c1ccnnc1SCCC(F)(F)c1ccc(F)cc1` [Example 13, 3-[[3,3-Difluoro-3-(4-fluorophenyl)-propyl]sulfanyl]-N-[(4-fluorophenyl)-methyl]-pyridazine-4-carboxylic acid amide] are 100% and 264 nM.
The corresponding values for `CC(C)CCNC(=O)c1ccnnc1SCCC(F)(F)c1ccc(F)cc1` [Example 12, 3-[[3,3-Difluoro-3-(4-fluorophenyl)-propyl]sulfanyl]-N-(3-methyl-butyl)-pyridazine-4-carboxylic acid amide] are 203% and 427 nM.
Consider `CC(C)CCNC(=O)c1ccccc1SCCC(F)(F)c1ccc(F)cc1` [Example 1, 2-[[3,3-Difluoro-3-(4-fluorophenyl)-propyl]sulfanyl]-N-(3-methyl-butyl)-benzamide], for which the Emax came out at 203% and the EC50 came out at 156 nM.
In the same order, the values of `O=C(NCc1ccc(F)cc1)c1cncnc1SCCC(F)(F)c1ccc(F)cc1` [Example 11, 4-[[3,3-Difluoro-3-(4-fluorophenyl)-propyl]sulfanyl]-N-[(4-fluorophenyl)-methyl]-pyrimidine-5-carboxylic acid amide] are 112% and 51 nM.
The corresponding values for `CC(C)CCNC(=O)c1ncccc1SCCC(F)(F)c1ccc(F)cc1` [Example 3, 3-[[3,3-Difluoro-3-(4-fluorophenyl)-propyl]sulfanyl]-N-(3-methyl-butyl)-pyridine-2-carboxylic acid amide] are 118% and 1590 nM.
The corresponding values for `CC(C)CCNC(=O)c1nccnc1SCCC(F)(F)c1ccc(F)cc1` [Example 9, 3-[[3,3-Difluoro-3-(4-fluorophenyl)-propyl]sulfanyl]-N-(3-methyl-butyl)-pyrazine-2-carboxylic acid amide] are 199% and 521 nM.
Consider `Cc1nc(SCCC(F)(F)c2ccc(F)cc2)c(C(=O)NCc2ccc(F)cc2)s1` [Example 15, 4-[[3,3-Difluoro-3-(4-fluorophenyl)-propyl]sulfanyl]-N-[(4-fluorophenyl)-methyl]-2-methyl-thiazole-5-carboxylic acid amide], for which the Emax amounted to 83% and the EC50 was 231 nM.
In the same order, the values of `CC(C)CCNC(=O)c1ccncc1SCCC(F)(F)c1ccc(F)cc1` [Example 7, 3-[[3,3-Difluoro-3-(4-fluorophenyl)-propyl]sulfanyl]-N-(3-methyl-butyl)-pyridine-4-carboxylic acid amide] are 197% and 1400 nM.
